The values below come from ChEMBL document CHEMBL6127063, “N-substituted-4-(pyridin-4-ylalkyl)piperazine-1-carboxamides and related compounds as Leishmania CYP51 and CYP5122A1 inhibitors” (Bioorg Med Chem, 2024).

The source made the active and inactive calls. The calls are words filed in the database; no cut-off is given here.

The EC50 is the concentration at which the effect is half-maximal. Broadly, the IC50 is the concentration that gives 50% inhibition.

The test system of test [1] is Leishmania donovani. Briefly: Antileishmanial activity against Leishmania donovani LV82 promastigotes assessed as inhibition of parasite proliferation. In kind it is functional, organism-based.
A short description of test [2]: Inhibition of full length his-tagged recombinant Leishmania donovani CYP51-32c.
Test [3] relates to Leishmania major. Briefly: Effect on Zymosterol level in Leishmania major LV39 promastigotes assessed as fold change at 17 uM incubated for 48 hrs by LC-MS/MS analysis. In kind it is functional.
For test [4], the system named is Leishmania major. Briefly: Effect on 4-Methylzymosterol level in Leishmania major LV39 promastigotes assessed as fold change at 17 uM incubated for 48 hrs by LC-MS/MS analysis. In kind it is functional.
Test [5] relates to Leishmania major. Nature of the test: Effect on 4-CH2OH-LS sterol level in Leishmania major LV39 promastigotes assessed as fold change at 17 uM incubated for 48 hrs by LC-MS/MS analysis. In kind it is functional.
Test [6] deals with Leishmania major. Nature of the test: Effect on Ergosterol level in Leishmania major LV39 promastigotes assessed as fold change at 17 uM incubated for 48 hrs by LC-MS/MS analysis. In kind it is functional.
The test system of test [7] is Leishmania major. Nature of the test: Effect on 4,14-Dimethylzymosterol level in Leishmania major LV39 promastigotes assessed as fold change at 17 uM incubated for 48 hrs by LC-MS/MS analysis. In kind it is functional.
Test [8] has as its system Leishmania major. Nature of the test: Effect on lanosterol level in Leishmania major LV39 promastigotes assessed as fold change at 17 uM incubated for 48 hrs by LC-MS/MS analysis. In kind it is functional.
In test [9] the test system is Leishmania major. Briefly: Effect on Fecosterol level in Leishmania major LV39 promastigotes assessed as fold change at 17 uM incubated for 48 hrs by LC-MS/MS analysis. In kind it is functional.
For test [10], the system named is Leishmania major. Nature of the test: Effect on Cholesta-7,24-dienol level in Leishmania major LV39 promastigotes assessed as fold change at 17 uM incubated for 48 hrs by LC-MS/MS analysis. In kind it is functional.
In test [11] the test system is Leishmania major. Briefly: Effect on Cholesterol level in Leishmania major LV39 promastigotes assessed as fold change at 17 uM incubated for 48 hrs by LC-MS/MS analysis. In kind it is functional.
For test [12], the system named is Leishmania major. Nature of the test: Effect on Ergosta-5,7-dienol level in Leishmania major LV39 promastigotes assessed as fold change at 17 uM incubated for 48 hrs by LC-MS/MS analysis. In kind it is functional.
In test [13] the test system is Leishmania major. Briefly: Effect on 7-Dehydrodesmosterol level in Leishmania major LV39 promastigotes assessed as fold change at 17 uM incubated for 48 hrs by LC-MS/MS analysis. In kind it is functional.
The subject of test [14] is Leishmania major. Briefly: Effect on Ergostatetraenol level in Leishmania major LV39 promastigotes assessed as fold change at 17 uM incubated for 48 hrs by LC-MS/MS analysis. In kind it is functional.
Test [15] deals with Leishmania major. Nature of the test: Effect on Episterol level in Leishmania major LV39 promastigotes assessed as fold change at 17 uM incubated for 48 hrs by LC-MS/MS analysis. In kind it is functional.
The subject of test [16] is Leishmania major. Briefly: Effect on 5-Dehydroepisterol level in Leishmania major LV39 promastigotes assessed as fold change at 17 uM incubated for 48 hrs by LC-MS/MS analysis. In kind it is functional.
In test [17] the test system is Leishmania major. Briefly: Effect on 14-methylzymosterol level in Leishmania major LV39 promastigotes assessed as fold change at 17 uM incubated for 48 hrs by LC-MS/MS analysis. In kind it is functional.
Test [18] relates to Leishmania major. Briefly: Effect on Fecosterol level in Leishmania major LV39 promastigotes assessed as fold change at 25 uM incubated for 48 hrs by LC-MS/MS analysis. In kind it is functional.
In test [19] the test system is Leishmania major. Nature of the test: Effect on Zymosterol level in Leishmania major LV39 promastigotes assessed as fold change at 25 uM incubated for 48 hrs by LC-MS/MS analysis. In kind it is functional.
Test [20] relates to Leishmania major. Briefly: Effect on 14-Methylfecosterol level in Leishmania major LV39 promastigotes assessed as fold change at 25 uM incubated for 48 hrs by LC-MS/MS analysis. In kind it is functional.
Test [21] concerns Leishmania major. Nature of the test: Effect on 4,14-Dimethylzymosterol level in Leishmania major LV39 promastigotes assessed as fold change at 25 uM incubated for 48 hrs by LC-MS/MS analysis. In kind it is functional.
Test [22] relates to Leishmania major. Briefly: Effect on Ergostatetraenol level in Leishmania major LV39 promastigotes assessed as fold change at 25 uM incubated for 48 hrs by LC-MS/MS analysis. In kind it is functional.
In test [23] the test system is Leishmania major. Briefly: Effect on 5-Dehydroepisterol level in Leishmania major LV39 promastigotes assessed as fold change at 25 uM incubated for 48 hrs by LC-MS/MS analysis. In kind it is functional.
Test [24] deals with Leishmania major. Nature of the test: Effect on 4-Methylzymosterol level in Leishmania major LV39 promastigotes assessed as fold change at 25 uM incubated for 48 hrs by LC-MS/MS analysis. In kind it is functional.
Test [25] has as its system Leishmania major. Briefly: Effect on 14-methylzymosterol level in Leishmania major LV39 promastigotes assessed as fold change at 25 uM incubated for 48 hrs by LC-MS/MS analysis. In kind it is functional.
Test [26] deals with Leishmania major. Briefly: Effect on Cholesterol level in Leishmania major LV39 promastigotes assessed as fold change at 25 uM incubated for 48 hrs by LC-MS/MS analysis. In kind it is functional.
Test [27] concerns Leishmania major. Briefly: Effect on Episterol level in Leishmania major LV39 promastigotes assessed as fold change at 25 uM incubated for 48 hrs by LC-MS/MS analysis. In kind it is functional.
For test [28], the system named is Leishmania major. Briefly: Effect on 4-CH2OH-LS sterol level in Leishmania major LV39 promastigotes assessed as fold change at 25 uM incubated for 48 hrs by LC-MS/MS analysis. In kind it is functional.
Test [29] deals with Leishmania major. Nature of the test: Effect on lanosterol level in Leishmania major LV39 promastigotes assessed as fold change at 25 uM incubated for 48 hrs by LC-MS/MS analysis. In kind it is functional.
Test [30] deals with Leishmania major. Nature of the test: Effect on Ergosta-5,7-dienol level in Leishmania major LV39 promastigotes assessed as fold change at 25 uM incubated for 48 hrs by LC-MS/MS analysis. In kind it is functional.
Test [31] relates to Leishmania major. Briefly: Effect on Cholesta-7,24-dienol level in Leishmania major LV39 promastigotes assessed as fold change at 25 uM incubated for 48 hrs by LC-MS/MS analysis. In kind it is functional.
Test [32] has as its system Leishmania major. Nature of the test: Effect on Ergosterol level in Leishmania major LV39 promastigotes assessed as fold change at 25 uM incubated for 48 hrs by LC-MS/MS analysis. In kind it is functional.
Test [33] concerns Leishmania major. Briefly: Effect on 7-Dehydrodesmosterol level in Leishmania major LV39 promastigotes assessed as fold change at 25 uM incubated for 48 hrs by LC-MS/MS analysis. In kind it is functional.
Test [34] has as its system Leishmania donovani. Nature of the test: Antileishmanial activity against Leishmania donovani promastigotes infected in mouse J774 cells assessed as inhibition of parasite proliferation. In kind it is functional, organism-based.
Test [35] concerns Leishmania donovani. Briefly: Antileishmanial activity against Leishmania donovani overexpressing CYP5122A1 at 1.2 to […]. In kind it is functional, organism-based. The note with it: dose 1.2-3.7 µM.

With `Cc1cc(NC(=O)N2CCN(Cc3ccncc3)CC2)cc(C)c1C`, in the test with Leishmania donovani [1], the EC50 was more than 50 µM.

Turning to `O=C(Nc1ccc(OCc2cc(C(F)(F)F)cc(C(F)(F)F)c2)cc1)N1CCN(CCc2ccccc2)CC1`, the IC50 in [2] was more than 100 µM. Besides, in the test with Leishmania donovani [1], the EC50 is more than 13 µM.

On to `O=C(Nc1ccc(OCc2cc(C(F)(F)F)cc(C(F)(F)F)c2)cc1)N1CCN(CCn2ccnc2)CC1`, for which the “fold change (FC)” value in the test with Leishmania major [3] was found to be 3.4; in the test with Leishmania major [4], 3.2; with Leishmania major [5], 1.6; in the test on Leishmania major [6], 0.42; in the test on Leishmania major [7], 1; in the test with Leishmania major [8], 31. Further, the “fold change (FC)” value with Leishmania major [9] was determined as 3.2; in the test on Leishmania major [10], 3.3; in the test with Leishmania major [11] it was 1.9; in the test on Leishmania major [12], 0.16; in the test with Leishmania major [13], 0.95; in the test with Leishmania major [14], 2.4. The “fold change (FC)” value in the test with Leishmania major [15] is on record as 3.2; with Leishmania major [16], 0.69; in the test with Leishmania major [17] it was 0.48.

Turning to `O=C(Nc1cccc(Cl)c1)N1CCN(Cc2ccncc2)CC1`, in the test on Leishmania donovani [1], the 50% effective concentration (EC50) is more than 100 µM.

With `Cc1cc(C)cc(NC(=O)N2CCN(Cc3ccncc3)CC2)c1`, the EC50 in the test with Leishmania donovani [1] was more than 50 µM.

On to `OC(Cn1cncn1)(Cn1cncn1)c1ccc(F)cc1F` [FLUCONAZOLE], for which the “fold change (FC)” value with Leishmania major [18] stood at 0.6; with Leishmania major [19] it was 0.39; with Leishmania major [20], 229; with Leishmania major [21] it was 1.8; in the test with Leishmania major [22], 0.37; in the test with Leishmania major [23] it was 0.25. Moreover, the “fold change (FC)” value was determined as 0.6 in the test on Leishmania major [24]; 4.5 in the test on Leishmania major [25]; 0.53 in the test on Leishmania major [26]; 0.6 in the test on Leishmania major [27]; 0.42 in the test on Leishmania major [28]; 0.47 in the test with Leishmania major [29]. For the same compound, the “fold change (FC)” value turned out to be 0.17 in the test with Leishmania major [30], 0.38 in the test with Leishmania major [31], 0.31 in the test on Leishmania major [32] and 0.044 in the test on Leishmania major [33].

Regarding `O=C(Nc1ccccc1Cl)N1CCN(Cc2ccncc2)CC1`, the concentration giving a half-maximal response (EC50) with Leishmania donovani [1] is more than 100 µM.

In the case of `Cc1ccc(NC(=O)N2CCN(Cc3ccncc3)CC2)cc1`, the EC50 in the test on Leishmania donovani [1] was more than 100 µM.

For the compound `O=C(Nc1cccc(F)c1)N1CCN(Cc2ccncc2)CC1`, the EC50 in the test with Leishmania donovani [1] was more than 100 µM.

For `Cc1cccc(NC(=O)N2CCN(Cc3ccncc3)CC2)c1`, the EC50 in the test on Leishmania donovani [1] was more than 100 µM.

Take `O=C(Nc1ccc(Cl)cc1)N1CCN(Cc2ccncc2)CC1`: the EC50 in the test on Leishmania donovani [1] is more than 100 µM.

In the case of `O=C(Nc1ccc(C(F)(F)F)cc1)N1CCN(Cc2ccncc2)CC1`, in the test with Leishmania donovani [1], the EC50 is more than 50 µM.

For `O=C(Nc1ccc(OCc2cc(C(F)(F)F)cc(C(F)(F)F)c2)cc1)N1CCN(CCn2cncn2)CC1`, the EC50 in the test with Leishmania donovani [1] and in the test with Leishmania donovani [34] was more than 50 µM throughout.

As for `O=C(Nc1ccc(OCc2cc(C(F)(F)F)cc(C(F)(F)F)c2)cc1)N1CCN(CCc2ccncc2)CC1`, the outcome in the test with Leishmania donovani [35] was Active.
